Reference: ChEMBL document CHEMBL1126228, “2,3:18,19-dioxidosqualene: synthesis and activity as a potent inhibitor of 2,3-oxidosqualene-lanosterol cyclase in rat liver microsomes” (Bioorg Med Chem Lett, 1992)
pIC50: −log10 of the molar value.

Biological target: T1, Lanosterol synthase (Rattus norvegicus, UniProt P48450)
T1 sequence (P48450 whole entry): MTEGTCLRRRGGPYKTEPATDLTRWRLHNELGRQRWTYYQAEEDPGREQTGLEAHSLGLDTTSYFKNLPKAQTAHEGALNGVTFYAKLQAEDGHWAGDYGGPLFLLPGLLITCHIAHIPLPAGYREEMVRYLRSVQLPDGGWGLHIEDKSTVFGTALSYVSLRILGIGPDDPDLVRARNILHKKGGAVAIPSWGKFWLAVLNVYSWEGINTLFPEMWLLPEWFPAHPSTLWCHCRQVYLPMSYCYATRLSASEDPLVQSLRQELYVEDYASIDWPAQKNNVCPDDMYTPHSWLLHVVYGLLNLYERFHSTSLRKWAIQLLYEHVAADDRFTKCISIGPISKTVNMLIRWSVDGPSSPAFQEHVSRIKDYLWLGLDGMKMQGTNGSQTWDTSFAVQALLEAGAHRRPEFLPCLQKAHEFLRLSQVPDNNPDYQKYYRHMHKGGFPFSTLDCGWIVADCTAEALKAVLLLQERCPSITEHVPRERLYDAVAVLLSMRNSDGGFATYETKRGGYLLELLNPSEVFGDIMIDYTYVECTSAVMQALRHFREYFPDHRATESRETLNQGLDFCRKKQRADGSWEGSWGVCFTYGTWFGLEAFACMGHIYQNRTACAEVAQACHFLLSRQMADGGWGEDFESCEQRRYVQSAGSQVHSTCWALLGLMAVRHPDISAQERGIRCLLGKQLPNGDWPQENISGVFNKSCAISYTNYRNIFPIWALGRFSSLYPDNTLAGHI
Test: Compound was evaluated for inhibitory activity against 2,3-oxidosqualene-lanosterol cyclase in rat liver microsomes
Parameters: species or system Microsome

Compound | pIC50
C/C(=C\CC/C=C(\C)CC/C=C(\C)CCC1OC1(C)C)CC/C=C(\C)CCC1OC1(C)C (stereo not drawn) | 3.85
CC(C)=CCC/C(C)=C/CC/C(C)=C/CC/C=C(\C)CCC1OC1(C)CCC=C(C)C (stereo not drawn) | 4.08
CC(C)=CCCC1(C)OC1CC/C(C)=C/CC/C=C(\C)CC/C=C(\C)CCC1OC1(C)C (stereo not drawn) | 6.96
